The target of test [1] is Met (phospho-Met, HGF-stimulated PC-3 prostate cancer cells) (Homo sapiens (Human), UniProt P08581). Kind of test: Met autophosphorylation ELISA in PC-3 cells (Example F). Type of test: cell-based. The following applies: cellular activity; Met autophosphorylation ELISA in PC-3 cells; read-out: c-Met IC50. In a few lines: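 IC50 values derive from a 4-parameter logistic fit of phospho-Met (panTyr) sandwich ELISA signals in PC-3 lysates, scaled between DMSO and reference-inhibitor wells. Cells, starved 3 h in serum-free medium, had 1 h compound exposure (8 doses, 0.3% DMSO) before 10 min stimulation with 100 ng/mL HGF.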
(In general: ELISA stands for enzyme-linked immunosorbent assay.)

The target in test [2] is KDR (phospho-KDR, VEGF165-stimulated HUVEC cells) (Homo sapiens (Human), UniProt P35968). Kind of test: KDR autophosphorylation ELISA in HUVEC cells (Example G). Type of test: cell-based. The following applies: cellular activity; KDR autophosphorylation ELISA in HUVEC cells. In a few lines: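 Read-out is phospho-KDR measured by ELISA in lysates of VEGF165-stimulated (100 ng/mL, 5 min) HUVEC that were serum-starved 24 h and then pre-exposed 1 h to compound across 8 doses in 0.3% DMSO. Unstimulated lysates defined 0% and stimulated vehicle lysates 100% activity; IC50 values come from 4-parameter logistic regression.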

In test [3] the target is Human MET (residues 956-1390) (Homo sapiens (Human), UniProt P08581). Kind of test: Human Met kinase assay, HTRF KinEase (Example D-2). Conditions: protocol of Example D-2 (other compounds); read-out: c-Met IC50. Type of test: biochemical. In a few lines:
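HTRF KinEase assay on MET residues 956-1390 (0.1 ng/well) in buffer with 5 mM MgCl2, 1 mM DTT and 1 mM MnCl2, with biotinylated peptide substrate, ATP at Km, 10 compound concentrations and 3% DMSO final, run 40 min at room temperature. The […] signal was normalized to DMSO and to 1 μM reference compound, and IC50 came from a 4-parameter logistic fit.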
Background: Time-resolved FRET reads energy transfer from a long-lived donor to a nearby acceptor.

Sequence of Human MET (residues 956-1390) (P08581 956-1390): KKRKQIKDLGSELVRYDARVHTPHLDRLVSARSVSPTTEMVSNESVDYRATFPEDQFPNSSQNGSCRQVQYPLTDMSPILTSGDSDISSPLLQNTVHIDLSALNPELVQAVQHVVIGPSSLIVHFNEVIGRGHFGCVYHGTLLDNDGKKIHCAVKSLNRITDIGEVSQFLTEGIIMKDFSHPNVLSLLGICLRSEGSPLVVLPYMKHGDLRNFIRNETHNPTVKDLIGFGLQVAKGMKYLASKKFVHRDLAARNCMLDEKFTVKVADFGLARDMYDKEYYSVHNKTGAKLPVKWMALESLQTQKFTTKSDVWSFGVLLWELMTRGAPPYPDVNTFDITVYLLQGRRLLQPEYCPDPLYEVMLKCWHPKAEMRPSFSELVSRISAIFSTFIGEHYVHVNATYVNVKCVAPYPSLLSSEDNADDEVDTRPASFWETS
Sequence of Met (phospho-Met, HGF-stimulated PC-3 prostate cancer cells) (P08581 25-1390): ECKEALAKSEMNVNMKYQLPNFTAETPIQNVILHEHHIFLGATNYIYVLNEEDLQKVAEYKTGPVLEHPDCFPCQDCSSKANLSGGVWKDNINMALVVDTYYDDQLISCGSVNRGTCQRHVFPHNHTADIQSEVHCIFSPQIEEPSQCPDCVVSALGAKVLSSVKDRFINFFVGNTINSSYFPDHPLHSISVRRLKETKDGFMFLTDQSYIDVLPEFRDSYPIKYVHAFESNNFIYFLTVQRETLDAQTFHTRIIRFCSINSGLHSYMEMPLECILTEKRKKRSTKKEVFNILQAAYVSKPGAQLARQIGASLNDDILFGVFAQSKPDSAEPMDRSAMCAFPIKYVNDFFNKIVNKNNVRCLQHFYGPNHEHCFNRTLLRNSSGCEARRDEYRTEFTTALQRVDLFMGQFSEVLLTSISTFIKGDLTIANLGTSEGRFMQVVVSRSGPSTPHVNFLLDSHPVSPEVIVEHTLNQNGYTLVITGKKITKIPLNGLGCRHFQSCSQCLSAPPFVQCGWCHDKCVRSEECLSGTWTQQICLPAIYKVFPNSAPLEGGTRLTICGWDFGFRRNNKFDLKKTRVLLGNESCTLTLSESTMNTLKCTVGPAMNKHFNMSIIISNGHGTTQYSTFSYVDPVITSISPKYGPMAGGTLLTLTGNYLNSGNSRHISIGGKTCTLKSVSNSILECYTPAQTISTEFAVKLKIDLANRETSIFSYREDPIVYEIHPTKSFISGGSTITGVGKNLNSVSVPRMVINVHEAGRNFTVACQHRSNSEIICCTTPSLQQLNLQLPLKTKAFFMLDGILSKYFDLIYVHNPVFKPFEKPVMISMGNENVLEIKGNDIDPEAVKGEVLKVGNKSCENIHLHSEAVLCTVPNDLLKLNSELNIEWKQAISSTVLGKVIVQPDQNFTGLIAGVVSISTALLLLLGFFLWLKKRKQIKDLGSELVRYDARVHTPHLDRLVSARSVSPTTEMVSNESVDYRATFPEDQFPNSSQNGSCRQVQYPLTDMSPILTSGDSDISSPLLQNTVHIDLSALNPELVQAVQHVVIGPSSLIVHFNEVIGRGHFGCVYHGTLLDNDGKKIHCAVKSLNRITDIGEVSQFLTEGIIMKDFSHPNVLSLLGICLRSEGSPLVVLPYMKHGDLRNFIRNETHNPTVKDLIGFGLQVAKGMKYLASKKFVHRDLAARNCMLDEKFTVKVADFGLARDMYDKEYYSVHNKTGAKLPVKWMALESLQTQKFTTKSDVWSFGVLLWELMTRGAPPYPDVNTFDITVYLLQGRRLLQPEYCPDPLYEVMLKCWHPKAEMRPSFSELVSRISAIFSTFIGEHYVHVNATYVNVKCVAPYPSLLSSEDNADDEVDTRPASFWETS
Sequence of KDR (phospho-KDR, VEGF165-stimulated HUVEC cells) (P35968 20-1356): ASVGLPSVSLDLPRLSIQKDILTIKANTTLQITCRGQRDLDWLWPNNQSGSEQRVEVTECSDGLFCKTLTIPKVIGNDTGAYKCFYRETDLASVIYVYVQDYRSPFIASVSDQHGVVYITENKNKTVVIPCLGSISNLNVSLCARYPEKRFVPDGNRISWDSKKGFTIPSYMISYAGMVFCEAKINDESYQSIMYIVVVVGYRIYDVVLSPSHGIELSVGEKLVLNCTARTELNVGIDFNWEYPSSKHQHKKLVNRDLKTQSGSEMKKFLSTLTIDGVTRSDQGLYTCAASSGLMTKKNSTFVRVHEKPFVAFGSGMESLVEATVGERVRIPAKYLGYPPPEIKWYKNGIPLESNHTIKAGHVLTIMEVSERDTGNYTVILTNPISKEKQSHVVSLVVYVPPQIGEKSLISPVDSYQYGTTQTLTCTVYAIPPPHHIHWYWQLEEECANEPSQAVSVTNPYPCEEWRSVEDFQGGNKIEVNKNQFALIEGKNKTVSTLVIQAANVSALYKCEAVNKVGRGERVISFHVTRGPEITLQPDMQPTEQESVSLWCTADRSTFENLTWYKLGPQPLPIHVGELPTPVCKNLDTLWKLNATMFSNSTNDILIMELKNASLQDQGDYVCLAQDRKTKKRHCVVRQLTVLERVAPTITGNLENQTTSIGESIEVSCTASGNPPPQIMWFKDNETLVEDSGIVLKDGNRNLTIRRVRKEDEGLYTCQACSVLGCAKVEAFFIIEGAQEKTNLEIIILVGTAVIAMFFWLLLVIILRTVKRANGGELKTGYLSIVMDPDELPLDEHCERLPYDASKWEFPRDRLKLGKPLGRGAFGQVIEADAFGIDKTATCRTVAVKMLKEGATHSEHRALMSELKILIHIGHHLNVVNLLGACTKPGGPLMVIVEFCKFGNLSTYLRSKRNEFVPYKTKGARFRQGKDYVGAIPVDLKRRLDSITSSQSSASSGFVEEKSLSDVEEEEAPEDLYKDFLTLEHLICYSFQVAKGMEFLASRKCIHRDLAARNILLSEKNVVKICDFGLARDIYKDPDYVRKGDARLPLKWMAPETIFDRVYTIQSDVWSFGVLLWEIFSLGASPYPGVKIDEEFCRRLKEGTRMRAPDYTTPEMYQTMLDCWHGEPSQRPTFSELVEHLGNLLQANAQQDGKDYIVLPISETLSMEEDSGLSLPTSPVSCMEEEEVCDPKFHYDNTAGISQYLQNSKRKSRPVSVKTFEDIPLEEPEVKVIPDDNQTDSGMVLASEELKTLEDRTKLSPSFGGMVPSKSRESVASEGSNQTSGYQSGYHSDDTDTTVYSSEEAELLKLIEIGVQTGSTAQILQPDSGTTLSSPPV

As a reminder, the IC50 is the concentration that gives 50% inhibition. As for `COc1cnc2c(Oc3ccc(NC(=O)c4c(C)n(C)cc(-c5ccc(F)cc5)c4=O)cc3F)ccnc2c1` [Compound 239, N-[3-Fluoro-4-[(7-methoxy-1,5-naphthyridin-4-yl)oxy]phenyl]-5-(4-fluorophenyl)-1,2-dimethyl-4-oxopyridine-3-carboxamide], the IC50 in test [1] was 100 to 300 nM; in test [2], greater than 300 nM; in test [3] it was less than 100 nM.

Take `CCn1cc(-c2ccc(F)cc2)c(=O)c(C(=O)Nc2ccc(Oc3ccnc4cc(OC)cnc34)c(F)c2)c1C` [Compound 240, 1-Ethyl-N-[3-fluoro-4-[(7-methoxy-1,5-naphthyridin-4-yl)oxy]phenyl]-5-(4-fluorophenyl)-2-methyl-4-oxopyridine-3-carboxamide]: the half-maximal inhibitory concentration (IC50) is less than 100 nM in test [1], greater than 300 nM in test [2] and less than 100 nM in test [3].

Turning to `COc1cnc2c(Oc3ccc(NC(=O)c4cnc(C(F)(F)F)c(-c5ccc(F)cc5)c4O)cc3F)ccnc2c1` [Compound 241, N-[3-Fluoro-4-[(7-methoxy-1,5-naphthyridin-4-yl)oxy]phenyl]-5-(4-fluorophenyl)-4-hydroxy-6-(trifluoromethyl)pyridine-3-carboxamide], the IC50 in test [1] is less than 100 nM; in test [2], greater than 300 nM; in test [3], 100 to 300 nM.

As for `COc1ccc2nccc(Oc3ccc(NC(=O)c4c(C)ncc(-c5ccc(F)cc5)c4O)cc3F)c2n1` [Compound 242, N-[3-Fluoro-4-[(6-methoxy-1,5-naphthyridin-4-yl)oxy]phenyl]-5-(4-fluorophenyl)-4-hydroxy-2-methylpyridine-3-carboxamide], the IC50 in test [1], in test [2] and in test [3] was less than 100 nM each time.

Consider `COc1ccc2nccc(Oc3ccc(NC(=O)c4c(C)n(C)cc(-c5ccc(F)cc5)c4=O)cc3F)c2n1` [Compound 243, N-[3-Fluoro-4-[(6-methoxy-1,5-naphthyridin-4-yl)oxy]phenyl]-5-(4-fluorophenyl)-1,2-dimethyl-4-oxopyridine-3-carboxamide], for which the 50% inhibitory concentration (IC50) was less than 100 nM in test [1], greater than 300 nM in test [2] and greater than 300 nM in test [3].

Take `COc1cnc2c(Oc3ccc(NC(=O)c4n[nH]c(C)c(-c5ccc(F)cc5)c4=O)cc3)ccnc2c1` [Compound 245, 5-(4-Fluorophenyl)-N-[4-[(7-methoxy-1,5-naphthyridin-4-yl)oxy]phenyl]-6-methyl-4-oxo-1H-pyridazine-3-carboxamide]: the half-maximal inhibitory concentration (IC50) in test [1], in test [2] and in test [3] was less than 100 nM each time.

Turning to `COc1cnc2c(Oc3ccc(NC(=O)c4n[nH]c(C)c(-c5ccc(F)cc5)c4=O)cc3F)ccnc2c1` [Compound 246, N-[3-Fluoro-4-[(7-methoxy-1,5-naphthyridin-4-yl)oxy]phenyl]-5-(4-fluorophenyl)-6-methyl-4-oxo-1H-pyridazine-3-carboxamide], the half-maximal inhibitory concentration (IC50) in test [1], in test [2] and in test [3] was less than 100 nM throughout.

As for `COc1cc2nccc(Oc3ccc(NC(=O)c4n[nH]c(C)c(-c5ccc(F)cc5C)c4=O)cc3)c2nc1OC` [Compound 247, N-[4-[(6,7-Dimethoxy-1,5-naphthyridin-4-yl)oxy]phenyl]-5-(4-fluoro-2-methylphenyl)-6-methyl-4-oxo-1H-pyridazine-3-carboxamide], the half-maximal inhibitory concentration (IC50) in test [1], in test [2] and in test [3] was less than 100 nM in each case.

For `COc1cnc2c(Oc3ccc(NC(=O)c4n[nH]c(C)c(-c5ccc(F)cc5C)c4=O)cc3)ccnc2c1` [Compound 248, 5-(4-Fluoro-2-methylphenyl)-N-[4-[(7-methoxy-1,5-naphthyridin-4-yl)oxy]phenyl]-6-methyl-4-oxo-1H-pyridazine-3-carboxamide], the figures for the IC50 in test [1], in test [2] and in test [3] were less than 100 nM, greater than 300 nM and less than 100 nM, respectively.

Regarding `COc1cnc2c(Oc3ccc(NC(=O)c4n[nH]c(C)c(-c5ccc(F)cc5C)c4=O)cc3F)ccnc2c1` [Compound 249A, N-[3-Fluoro-4-[(7-methoxy-1,5-naphthyridin-4-yl)oxy]phenyl]-5-(4-fluoro-2-methylphenyl)-6-methyl-4-oxo-1H-pyridazine-3-carboxamide], the figures for the IC50 in test [1], in test [2] and in test [3] were less than 100 nM, 100 to 300 nM and less than 100 nM, respectively.

Consider `COc1cnc2c(Oc3ccc(NC(=O)c4nn(C)c(C)c(-c5ccc(F)cc5)c4=O)cc3F)ccnc2c1` [Compound 250, N-[3-Fluoro-4-[(7-methoxy-1,5-naphthyridin-4-yl)oxy]phenyl]-5-(4-fluorophenyl)-1,6-dimethyl-4-oxopyridazine-3-carboxamide], for which the IC50 in test [1] was less than 100 nM; in test [2] it was greater than 300 nM; in test [3], less than 100 nM.

`COc1cnc2c(Oc3ccc(NC(=O)c4nn(C)c(C)c(-c5ccc(F)cc5)c4=O)cc3)ccnc2c1` [Compound 251, 5-(4-Fluorophenyl)-N-[4-[(7-methoxy-1,5-naphthyridin-4-yl)oxy]phenyl]-1,6-dimethyl-4-oxopyridazine-3-carboxamide]: the half-maximal inhibitory concentration (IC50) in test [1] is less than 100 nM; in test [2], greater than 300 nM; in test [3] it was less than 100 nM.

With `COCCOc1nc2c(Oc3ccc(NC(=O)c4n[nH]c(C)c(-c5ccc(F)cc5C)c4=O)cc3F)ccnc2cc1OC` [Compound 252, N-[3-Fluoro-4-[[7-methoxy-6-(2-methoxyethoxy)-1,5-naphthyridin-4-yl]oxy]phenyl]-5-(4-fluoro-2-methylphenyl)-6-methyl-4-oxo-1H-pyridazine-3-carboxamide], the IC50 in test [1], in test [2] and in test [3] was less than 100 nM each time.

For the compound `COc1cnc2c(Oc3ccc(NC(=O)c4c(C)ncn(-c5ccc(F)cc5)c4=O)cc3F)ccnc2c1` [Compound 256, N-[3-Fluoro-4-[(7-methoxy-1,5-naphthyridin-4-yl)oxy]phenyl]-1-(4-fluorophenyl)-4-methyl-6-oxopyrimidine-5-carboxamide], the concentration for half-maximal inhibition (IC50) is 100 to 300 nM in test [1], greater than 300 nM in test [2] and less than 100 nM in test [3].

Turning to `COc1cnc2c(Oc3ccc(NC(=O)c4c(C)nc(C)n(-c5ccc(F)cc5)c4=O)cc3F)ccnc2c1` [Compound 257, N-[3-Fluoro-4-[(7-methoxy-1,5-naphthyridin-4-yl)oxy]phenyl]-1-(4-fluorophenyl)-2,4-dimethyl-6-oxopyrimidine-5-carboxamide], the 50% inhibitory concentration (IC50) in test [1], in test [2] and in test [3] was less than 100 nM throughout.

Take `COc1cnc2c(Oc3ccc(NC(=O)c4c(C)nc(C)n(-c5ccc(F)cc5)c4=O)cc3)ccnc2c1` [Compound 258, 1-(4-Fluorophenyl)-N-[4-[(7-methoxy-1,5-naphthyridin-4-yl)oxy]phenyl]-2,4-dimethyl-6-oxopyrimidine-5-carboxamide]: the figures for the IC50 in test [1], in test [2] and in test [3] were less than 100 nM, 100 to 300 nM and less than 100 nM, respectively.

In the case of `COc1cc2nccc(Oc3ccc(NC(=O)c4cn(CC(F)(F)F)c(C)c(-c5ccc(F)cc5)c4=O)cc3F)c2cc1OC` [Compound 259, N-[4-(6,7-Dimethoxyquinolin-4-yl)oxy-3-fluorophenyl]-5-(4-fluorophenyl)-6-methyl-4-oxo-1-(2,2,2-trifluoroethyl)pyridine-3-carboxamide], the results for the half-maximal inhibitory concentration (IC50) in test [1], in test [2] and in test [3] were less than 100 nM, 100 to 300 nM and 100 to 300 nM, respectively.
